Tests used:
[1] = Stability of ORZY-04 on drying; assay type: physicochemical; conditions: 168 h of drying at 45° C. in vacuum
Experimental: A citric acid solution was prepared by charging citric acid (15.01 g, […]) and MeOH (100 mL) in a separate container and stirring for 5 min. at 20° C. The citric acid solution was then charged to the container containing the reaction solution, and the mixture was cooled to 0° C. and stirred for at least 12 h at 0° C. ORZY-04 was then isolated by filtration of the obtained suspension, and washed with MeOH (40 mL). Finally, the solids were dried at 45° C. in vacuum.

[2] = design: species or system human; conditions: in vivo
Experimental: The PK parameters of arimoclomol after single dose and multiple dose administrations of arimoclomol were studied. After single- and multiple-dose oral administration of arimoclomol, the overall median tmax was 0.25 to 3.00 hours.

[3] = assay type: in vivo, human
Excerpt: The stability permits that the permeability of arimoclomol is high based on urinary recovery in human mass balance trial.

[4] = design: species or system dogs; conditions: dog, in vivo
[5] = Particle size distribution of ORZY-05 by static automated imaging (Morphologi 4); assay type: physicochemical; conditions: ORZY-05 particles
Experimental: The materials and methods were essentially as in Example 7. In the present example, the cooling time of the cooling step of from 30° C. to 0° C. subsequent to addition of acetone was varied and its influence on the particle size of ORZY-05 was determined. The cooling time is a measure of how long it takes to reach 0° C. from 30° C. The particle size distribution (PSD) data shown in Table 3 were acquired using static automated imaging (Morphology 4).
Morphologi 4: The Particle size distribution of Arimoclomol citrate (ORZY-05) was also measured using a Malvern Morphologi 4 equipment.
Wet measurement was used for the needle shaped particles. […] Measurements were made using a thin path wet cell (75*75 mm). Samples were prepared by adding 20 mL of dispersant to 10 mg of API, followed by 30 s of stirring and 2 min of sonication in order to break the agglomerates. A microscope magnifier of X10 or X20 was used, and segmentation sharp edge and/or thresholding was used to improve the focus microscope focus.

[6] = Particle size distribution of ORZY-05 by Malvern Mastersizer 3000; assay type: physicochemical; conditions: ORZY-05 particles, Malvern Mastersizer 3000, volume distribution
Experimental: Further batches of ORZY-05 were prepared essentially as in Example 7 and the ORZY-05 particles were examined using Malvern Mastersizer 3000 as described in Example 11.
Malvern Mastersizer 3000: Particle size distribution of Arimoclomol citrate (ORZY-05) was determined by light scattering using a Malvern Mastersizer 3000 particle size analyzer (Malvern Instruments Ltd, Grovewood Road, Malvern, Worcestershire WR14 1XZ, United Kingdom) with a Hydro MV wet-dispersion unit attached. 2-Propanol with 1.8 g/L SPAN-85 additive was used as a dispersion medium (“dispersant”) and added to the dispersion unit. Prior to sample addition, the background counts of the system were determined by circulating the dispersant through the measurement cell under measurement conditions (2500 rpm stirrer speed). Samples for analysis were prepared by adding a suitable amount of Arimoclomol citrate to a 10 mL vial and pre-dispersing it with dispersant under light agitation for a few seconds. The pre-dispersed sample was then pipetted into the Hydro MV dispersion unit filled with dispersant to meet a laser obscuration range of 10-15%. A single-use PE pipette was used for this and representative sampling from the 10 mL vial was ensured by continuous agitation. […] Volume distributions were obtained and the D10, D50 and D90 were calculated from these distributions and reported. For each sample, a single sample preparation was analyzed using red light measurement only. Upon measurement completion, the sample cell was emptied and cleaned.

SMILES: [O-][n+]1cccc(/C(Cl)=N/OC[C@H](O)CN2CCCCC2)c1 [ORZY-04]
- stability on drying [1]: stable

SMILES: [O-][n+]1cccc(C(Cl)=NOC[C@H](O)CN2CCCCC2)c1 [arimoclomol, N-{[(2R)-2-hydroxy-3-piperidin-1-ylpropyl]oxy}pyridine-3-carboximidoyl chloride 1-oxide]
- PK parameters (Cmax and AUC0-8) versus dose [2]: increase in proportion to the dose
- absorption ([2]; po): rapid and extensive
- drug-related material recovered in faeces ([3]; in vivo): 12%
- drug-related material recovered in the urine ([3]; in vivo): 77.5%
- permeability ([3]; not told): high
- absolute bioavailability [4]: 75%

SMILES: O=C(O)CC(O)(CC(=O)O)C(=O)O.[O-][n+]1cccc(/C(Cl)=N/OC[C@H](O)CN2CCCCC2)c1 [compound 1001, arimoclomol citrate]
- Number CE Diameter D10 [5]: 2.41 μm
- Number CE Diameter D50 [5]: 5.28 μm
- Number CE Diameter D90 [5]: 17.81 μm
- Number CE Diameter Mean [5]: 8.16 μm
- Number Length D10 [5]: 2.90 μm
- Number Length D50 [5]: 7.03 μm
- Number Length D90 [5]: 26.69 μm
- Volume CE Diameter D10 [5]: 13.10 μm
- Volume CE Diameter D50 [5]: 25.95 μm
- Volume CE Diameter D90 [5]: 47.14 μm
- Volume CE diameter D[3,2] [5]: 21.77 μm
- Volume CE diameter D[4,3] [5]: 29.46 μm
- D10 [6]: 7.00 μm
- D50 [6]: 21.00 μm
- D90 [6]: 63.00 μm

Source: patent publication US20230416224A1, “PROCESSES FOR PREPARING ARIMOCLOMOL CITRATE AND INTERMEDIATES THEREOF” (ZEVRA DENMARK A/S, priority 2020, published 2023)
